Patent publication US8722704B2, “Modulators of ATP-binding cassette-transporters” (Vertex Pharmaceuticals Incorporated, priority 2007, dated 2014)

What follows are compounds tested against T1, ΔF508-CFTR (Homo sapiens, UniProt P13569, DEL508-508) (assay: Assays for detecting and measuring ΔF508-CFTR correction properties (membrane potential optical assay; Table 3 does not say which assay)). Details: IC50/EC50 bins; NIH3T3 mouse fibroblasts stably expressing ΔF508-CFTR; read-out: Binned EC50.
T1 construct: expressed in transfected cells
T1 sequence (P13569 with tags, fused parts or gaps DEL508-508): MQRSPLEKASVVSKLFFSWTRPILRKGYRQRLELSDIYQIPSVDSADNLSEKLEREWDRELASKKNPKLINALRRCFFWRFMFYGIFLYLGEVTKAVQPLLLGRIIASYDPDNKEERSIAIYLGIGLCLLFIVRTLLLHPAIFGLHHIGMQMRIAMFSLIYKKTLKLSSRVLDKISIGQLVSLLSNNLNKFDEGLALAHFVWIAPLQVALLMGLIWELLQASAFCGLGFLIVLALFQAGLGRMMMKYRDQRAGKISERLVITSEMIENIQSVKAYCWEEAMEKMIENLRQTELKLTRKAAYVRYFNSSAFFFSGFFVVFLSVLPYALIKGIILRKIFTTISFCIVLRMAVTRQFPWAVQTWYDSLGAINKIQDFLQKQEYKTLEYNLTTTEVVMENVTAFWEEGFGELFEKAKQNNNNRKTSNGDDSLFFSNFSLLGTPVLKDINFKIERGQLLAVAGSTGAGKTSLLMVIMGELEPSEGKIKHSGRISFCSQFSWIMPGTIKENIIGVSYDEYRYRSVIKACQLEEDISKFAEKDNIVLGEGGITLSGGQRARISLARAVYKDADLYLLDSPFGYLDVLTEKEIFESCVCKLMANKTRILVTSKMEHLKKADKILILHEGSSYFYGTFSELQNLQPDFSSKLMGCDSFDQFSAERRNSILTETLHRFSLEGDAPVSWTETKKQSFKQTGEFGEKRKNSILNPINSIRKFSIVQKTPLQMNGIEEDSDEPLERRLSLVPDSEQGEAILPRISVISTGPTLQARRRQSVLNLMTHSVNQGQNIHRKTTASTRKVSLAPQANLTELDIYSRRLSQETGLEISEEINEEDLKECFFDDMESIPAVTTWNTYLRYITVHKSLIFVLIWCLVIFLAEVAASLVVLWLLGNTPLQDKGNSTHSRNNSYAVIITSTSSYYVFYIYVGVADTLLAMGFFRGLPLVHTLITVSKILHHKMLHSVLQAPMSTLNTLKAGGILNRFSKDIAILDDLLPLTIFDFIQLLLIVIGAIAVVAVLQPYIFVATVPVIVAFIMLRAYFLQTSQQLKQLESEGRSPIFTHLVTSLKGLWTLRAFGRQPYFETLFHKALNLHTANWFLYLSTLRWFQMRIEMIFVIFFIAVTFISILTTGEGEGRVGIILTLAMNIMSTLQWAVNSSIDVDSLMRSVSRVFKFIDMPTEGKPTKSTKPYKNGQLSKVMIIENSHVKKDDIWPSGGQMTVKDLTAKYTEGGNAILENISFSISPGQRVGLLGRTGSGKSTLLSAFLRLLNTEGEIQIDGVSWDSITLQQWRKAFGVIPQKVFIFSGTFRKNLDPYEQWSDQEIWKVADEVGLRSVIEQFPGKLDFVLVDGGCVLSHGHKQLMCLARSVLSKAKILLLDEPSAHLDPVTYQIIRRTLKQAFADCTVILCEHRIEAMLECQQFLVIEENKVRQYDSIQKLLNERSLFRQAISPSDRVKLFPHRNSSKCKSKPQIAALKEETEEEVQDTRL
Type: cell-based
Excerpt: The optical membrane potential assay utilized voltage-sensitive FRET sensors described by Gonzalez and Tsien (See Gonzalez, J. E. and R. Y. Tsien (1995) “Voltage sensing by fluorescence resonance energy transfer in single cells” Biophys J 69(4): 1272-80, and Gonzalez, J. E. and R. Y. Tsien (1997) “Improved indicators of cell membrane potential that use fluorescence resonance energy transfer” Chem Biol 4(4): 269-77) in combination with instrumentation for measuring fluorescence changes such as the Voltage/Ion Probe Reader (VIPR) (See Gonzalez, J. E., K. Oades, et al. (1999) “Cell-based assays and instrumentation for screening ion-channel targets” Drug Discov Today 4(9): 431-439).
These voltage sensitive assays are based on the change in fluorescence resonant energy transfer (FRET) between the membrane-soluble, voltage-sensitive dye, DiSBAC2(3), and a fluorescent phospholipid, CC2-DMPE, which is attached to the outer leaflet of the plasma membrane and acts as a FRET donor. Changes in membrane potential (Vm) cause the negatively charged DiSBAC2(3) to redistribute across the plasma membrane and the amount of energy transfer from CC2-DMPE changes accordingly. The changes in fluorescence emission were monitored using VIPR™ II, which is an integrated liquid handler and fluorescent detector designed to conduct cell-based screens in 96- or 384-well microtiter plates.
To identify small molecules that correct the trafficking defect associated with ΔF508-CFTR; a single-addition HTS assay format was developed. The cells were incubated in serum-free medium for 16 hrs at 37° C. in the presence or absence (negative control) of test compound. As a positive control, cells plated in 384-well plates were incubated for 16 hrs at 27° C. to “temperature-correct” ΔF508-CFTR. The cells were subsequently rinsed 3× with Krebs Ringers solution and loaded with the voltage-sensitive dyes. To activate ΔF508-CFTR, 10 μM forskolin and the CFTR potentiator, genistein (20 μM), were added along with Cl^−-free medium to each well. The addition of Cl^−-free medium promoted Cl^− efflux in response to ΔF508-CFTR activation and the resulting membrane depolarization was optically monitored using the FRET-based voltage-sensor dyes. […]
3. Solutions • Bath Solution #1: (in mM) NaCl 160, KCl 4.5, CaCl2 2, MgCl2 1, HEPES 10, pH 7.4 with NaOH. • Chloride-free bath solution: Chloride salts in Bath Solution #1 are substituted with gluconate salts. • CC2-DMPE: Prepared as a 10 mM stock solution in DMSO and stored at −20° C. • DiSBAC2(3): Prepared as a 10 mM stock in DMSO and stored at −20° C.
NIH3T3 mouse fibroblasts stably expressing ΔF508-CFTR are used for optical measurements of membrane potential. The cells are maintained at 37° C. in 5% CO2 and 90% humidity in Dulbecco's modified Eagle's medium supplemented with 2 mM glutamine, 10% fetal bovine serum, 1×NEAA, β-ME, 1×pen/strep, and 25 mM HEPES in 175 cm^2 culture flasks. For all optical assays, the cells were seeded at 30,000/well in 384-well matrigel-coated plates and cultured for 2 hrs at 37° C. before culturing at 27° C. for 24 hrs for the potentiator assay. For the correction assays, the cells are cultured at 27° C. or 37° C. with and without compounds for 16-24 hours.

EC50	Compound
> 5 µM	CS(=O)(=O)NCc1ccc(-c2nc(NC(=O)C3(c4ccc5c(c4)OC(F)(F)O5)CC3)cc3ccccc23)cc1 [Compound 1, 1-(2,2-Difluorobenzo[d][1,3]dioxol-5-yl)-N-(1-(4-(methylsulfonamidomethyl)phenyl)isoquinolin-3-yl)cyclopropanecarboxamide]
≤ 2 µM	CC(=O)NCc1ccc(-c2nc(NC(=O)C3(c4ccc5c(c4)OC(F)(F)O5)CC3)cc3ccccc23)cc1 [Compound 3, N-(1-(4-(Acetamidomethyl)phenyl)isoquinolin-3-yl)-1-(2,2-difluorobenzo[d][1,3]dioxol-5-yl)cyclopropanecarboxamide]
≤ 2 µM	O=C(Nc1cc2ccccc2c(-c2ccccc2)n1)C1(c2ccc3c(c2)OC(F)(F)O3)CC1 [Compound 4, 1-(2,2-difluorobenzo[d][1,3]dioxol-5-yl)-N-(1-phenylisoquinolin-3-yl)cyclopropanecarboxamide]
≤ 2 µM	O=C(O)c1ccc(-c2nc(NC(=O)C3(c4ccc5c(c4)OC(F)(F)O5)CC3)cc3ccccc23)cc1 [Compound 5]
≤ 2 µM	NC(=O)c1ccc(-c2nc(NC(=O)C3(c4ccc5c(c4)OC(F)(F)O5)CC3)cc3ccccc23)cc1 [Compound 6, 4-(3-(1-(2,2-Difluorobenzo[d][1,3]dioxol-5-yl)cyclopropanecarboxamido)isoquinolin-1-yl)benzamide]
≤ 2 µM	O=C(O)c1cccc(-c2nc(NC(=O)C3(c4ccc5c(c4)OC(F)(F)O5)CC3)cc3ccccc23)c1 [Compound 8]
≤ 2 µM	CC(=O)NCc1cccc(-c2nc(NC(=O)C3(c4ccc5c(c4)OC(F)(F)O5)CC3)cc3ccccc23)c1 [Compound 10, N-(1-(3-(Acetamidomethyl)phenyl)isoquinolin-3-yl)-1-(2,2-difluorobenzo[d][1,3]dioxol-5-yl)cyclopropanecarboxamide]
≤ 2 µM	NS(=O)(=O)c1ccc(-c2nc(NC(=O)C3(c4ccc5c(c4)OC(F)(F)O5)CC3)cc3ccccc23)cc1 [Compound 11, 1-(2,2-Difluorobenzo[d][1,3]dioxol-5-yl)-N-(1-(4-sulfamoylphenyl)isoquinolin-3-yl)cyclopropanecarboxamide]
≤ 2 µM	O=C1NCc2ccc(-c3nc(NC(=O)C4(c5ccc6c(c5)OC(F)(F)O6)CC4)cc4ccccc34)cc21 [Compound 15, 1-(2,2-Difluorobenzo[d][1,3]dioxol-5-yl)-N-(1-(3-oxoisoindolin-5-yl)isoquinolin-3-yl)cyclopropanecarboxamide]
≤ 2 µM	O=C(Nc1cc2ccccc2c(-c2ccc(=O)[nH]c2)n1)C1(c2ccc3c(c2)OC(F)(F)O3)CC1 [Compound 17, 1-(2,2-Difluorobenzo[d][1,3]dioxol-5-yl)-N-(1-(6-oxo-1,6-dihydropyridin-3-yl)isoquinolin-3-yl)cyclopropanecarboxamide]
≤ 2 µM	NC(=O)c1cccc(-c2nc(NC(=O)C3(c4ccc5c(c4)OC(F)(F)O5)CC3)cc3ccccc23)c1 [Compound 22, 3-(3-(1-(2,2-Difluorobenzo[d][1,3]dioxol-5-yl)cyclopropanecarboxamido)isoquinolin-1-yl)benzamide]
≤ 2 µM	CN1CCN(C(=O)c2ccc(-c3nc(NC(=O)C4(c5ccc6c(c5)OC(F)(F)O6)CC4)cc4ccccc34)cc2)CC1 [Compound 24, 1-(2,2-difluorobenzo[d][1,3]dioxol-5-yl)-N-(1-(4-(4-methylpiperazine-1-carbonyl)phenyl)isoquinolin-3-yl)cyclopropanecarboxamide]
≤ 2 µM	COc1ccc(-c2nc(NC(=O)C3(c4ccc5c(c4)OC(F)(F)O5)CC3)cc3ccccc23)cn1 [Compound 25, 1-(2,2-Difluorobenzo[d][1,3]dioxol-5-yl)-N-(1-(6-methoxypyridin-3-yl)isoquinolin-3-yl)cyclopropanecarboxamide]
≤ 2 µM	O=C(Nc1cc2ccccc2c(-c2ccc(CO)cc2)n1)C1(c2ccc3c(c2)OC(F)(F)O3)CC1 [Compound 27, 1-(2,2-Difluorobenzo[d][1,3]dioxol-5-yl)-N-(1-(4-(hydroxymethyl)phenyl)isoquinolin-3-yl)cyclopropanecarboxamide]

The remaining lines, values behind:

Compound	EC50
O=C(Nc1cc2ccccc2c(-c2ccc3[nH]ncc3c2)n1)C1(c2ccc3c(c2)OC(F)(F)O3)CC1 [Compound 2, N-(1-(1H-Indazol-5-yl)isoquinolin-3-yl)-1-(2,2-difluorobenzo[d][1,3]dioxol-5-yl)cyclopropanecarboxamide]	≤ 2 µM
Cc1cc2cc(-c3nc(NC(=O)C4(c5ccc6c(c5)OC(F)(F)O6)CC4)cc4ccccc34)ccc2[nH]1 [Compound 7, 1-(2,2-difluorobenzo[d][1,3]dioxol-5-yl)-N-(1-(2-methyl-1H-indol-5-yl)isoquinolin-3-yl)cyclopropanecarboxamide]	≤ 2 µM
CS(=O)(=O)NCc1cccc(-c2nc(NC(=O)C3(c4ccc5c(c4)OC(F)(F)O5)CC3)cc3ccccc23)c1 [Compound 9, 1-(2,2-Difluorobenzo[d][1,3]dioxol-5-yl)-N-(1-(3-(methylsulfonamidomethyl)phenyl)isoquinolin-3-yl)cyclopropanecarboxamide]	≤ 2 µM
COc1ccc(C2(C(=O)Nc3cc4ccccc4c(N4CCN(C)CC4)n3)CC2)cc1 [Compound 12]	≤ 2 µM
NS(=O)(=O)c1cccc(-c2nc(NC(=O)C3(c4ccc5c(c4)OC(F)(F)O5)CC3)cc3ccccc23)c1 [Compound 13, 1-(2,2-Difluorobenzo[d][1,3]dioxol-5-yl)-N-(1-(3-sulfamoylphenyl)isoquinolin-3-yl)cyclopropanecarboxamide]	≤ 2 µM
COc1ccc(C2(C(=O)Nc3cc4ccccc4c(N4CCN(c5ccccc5)C(=O)C4)n3)CC2)cc1 [Compound 14, 1-(4-methoxyphenyl)-N-(1-(3-oxo-4-phenylpiperazin-1-yl)isoquinolin-3-yl)cyclopropanecarboxamide]	≤ 2 µM
O=C(Nc1cc2ccccc2c(-c2ccc3[nH]ccc3c2)n1)C1(c2ccc3c(c2)OC(F)(F)O3)CC1 [Compound 16, N-(1-(1H-Indol-5-yl)isoquinolin-3-yl)-1-(2,2-difluorobenzo[d][1,3]dioxol-5-yl)cyclopropanecarboxamide]	≤ 2 µM
COc1ccc(C2(C(=O)Nc3cc4ccccc4c(N4CCOCC4)n3)CC2)cc1 [Compound 18, 1-(4-methoxyphenyl)-N-(1-morpholinoisoquinolin-3-yl)cyclopropanecarboxamide]	≤ 2 µM
CN(C)CCOC(=O)c1cccc(-c2nc(NC(=O)C3(c4ccc5c(c4)OC(F)(F)O5)CC3)cc3ccccc23)c1 [Compound 19, 2-(Dimethylamino)ethyl 3-(3-(1-(2,2-difluorobenzo[d][1,3]dioxol-5-yl)cyclopropanecarboxamido)isoquinolin-1-yl)benzoate]	≤ 2 µM
COc1ccc(C2(C(=O)Nc3cc4ccccc4c(N4CCC(c5ccccc5)CC4)n3)CC2)cc1 [Compound 20, 1-(4-methoxyphenyl)-N-(1-(4-phenylpiperidin-1-yl)isoquinolin-3-yl)cyclopropanecarboxamide]	≤ 2 µM
COc1ccc(C2(C(=O)Nc3cc4ccccc4c(N4CCNC(=O)C4)n3)CC2)cc1 [Compound 21]	≤ 2 µM
COc1ccc(C2(C(=O)Nc3cc4ccccc4c(N4CCCCC4)n3)CC2)cc1 [Compound 23, 1-(4-methoxyphenyl)-N-(1-(piperidin-1-yl)isoquinolin-3-yl)cyclopropanecarboxamide]	≤ 2 µM
CNS(=O)(=O)c1ccc(-c2nc(NC(=O)C3(c4ccc5c(c4)OC(F)(F)O5)CC3)cc3ccccc23)c(C)c1 [Compound 26, 1-(2,2-difluorobenzo[d][1,3]dioxol-5-yl)-N-(1-(2-methyl-4-(N-methylsulfamoyl)phenyl)isoquinolin-3-yl)cyclopropanecarboxamide]	≤ 2 µM
